What was measured:
Assay in all cases: relative viability (nuclei count vs DMSO), 5 days (fraction); higher = more cells survive
NCI-H1915 = system: NCI-H1915
Procedure, shortened: (§1)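 Lung cancer cell lines in 1536-well plates were dosed by pin tool the day after seeding, either with one drug alone or with a fixed anchor-drug dose plus five library-drug doses (not always all listed) in √10 steps. After 5 days, cells were fixed and their nuclei stained in one step (final 0.05% Triton X-100, 1% formaldehyde, 1 ug/ml Hoechst), then counted on 4× images. Relative viability is the nuclei count in treated wells divided by that in vehicle wells. Values are medians of duplicate plates.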

NCI-H358 = system: NCI-H358
Procedure, shortened: as §1

HCC-44 = system: HCC-44
Procedure, shortened: as §1

SK-MES-1 = system: SK-MES-1
Procedure, shortened: as §1

NCI-H2023 = system: NCI-H2023
Procedure, shortened: as §1

NCI-H1395 = system: NCI-H1395
Procedure, shortened: as §1

COR-L23 = system: COR-L23
Procedure, shortened: as §1

LOU-NH91 = system: LOU-NH91
Procedure, shortened: as §1

NCI-H2087 = system: NCI-H2087
Procedure, shortened: as §1

NCI-H1734 = system: NCI-H1734
Procedure, shortened: as §1

EKVX = system: EKVX
Procedure, shortened: as §1

A-427 = system: A-427
Procedure, shortened: as §1

HCC-366 = system: HCC-366
Procedure, shortened: as §1

NCI-H838 = system: NCI-H838
Procedure, shortened: as §1

NCI-H3122 = system: NCI-H3122
Procedure, shortened: as §1

NCI-H661 = system: NCI-H661
Procedure, shortened: as §1

EPLC-272H = system: EPLC-272H
Procedure, shortened: as §1

NCI-H650 = system: NCI-H650
Procedure, shortened: as §1

HCC-78 = system: HCC-78
Procedure, shortened: as §1

NCI-H596 = system: NCI-H596
Procedure, shortened: as §1

HOP-62 = system: HOP-62
Procedure, shortened: as §1

## Cc1cnc(-c2cnc(NCCNc3ccc(C#N)cn3)nc2-c2ccc(Cl)cc2Cl)[nH]1 + Cc1nc(NC(=O)N2CCC[C@H]2C(N)=O)sc1-c1ccnc(C(C)(C)C(F)(F)F)c1 [Alpelisib] (partner 2 µM)
NCI-H1915; first compound 0.08 µM
  relative viability: 1.08
NCI-H1915; first compound 0.8 µM
  relative viability: 1.09
NCI-H1915; first compound 2.53 µM
  relative viability: 1.01
NCI-H358; first compound 0.08 µM
  relative viability: 0.955
NCI-H358; first compound 0.253 µM
  relative viability: 0.714
NCI-H358; first compound 0.8 µM
  relative viability: 0.843
NCI-H358; first compound 2.53 µM
  relative viability: 0.729
HCC-44; first compound 0.08 µM
  relative viability: 0.853
HCC-44; first compound 0.253 µM
  relative viability: 0.768
HCC-44; first compound 0.8 µM
  relative viability: 0.823
HCC-44; first compound 2.53 µM
  relative viability: 0.926
SK-MES-1; first compound 0.08 µM
  relative viability: 1.01
SK-MES-1; first compound 0.253 µM
  relative viability: 0.888
SK-MES-1; first compound 2.53 µM
  relative viability: 0.911
NCI-H2023; first compound 0.08 µM
  relative viability: 0.574
NCI-H2023; first compound 0.253 µM
  relative viability: 0.656
NCI-H2023; first compound 0.8 µM
  relative viability: 0.747
NCI-H2023; first compound 2.53 µM
  relative viability: 1.12
NCI-H1395; first compound 0.08 µM
  relative viability: 1.23
NCI-H1395; first compound 0.253 µM
  relative viability: 1.03
NCI-H1395; first compound 0.8 µM
  relative viability: 1.41
NCI-H1395; first compound 2.53 µM
  relative viability: 0.971
COR-L23; first compound 0.08 µM
  relative viability: 0.918
COR-L23; first compound 0.253 µM
  relative viability: 0.649
COR-L23; first compound 0.8 µM
  relative viability: 0.826
COR-L23; first compound 2.53 µM
  relative viability: 0.774
LOU-NH91; first compound 0.08 µM
  relative viability: 0.852
LOU-NH91; first compound 0.253 µM
  relative viability: 0.729
LOU-NH91; first compound 0.8 µM
  relative viability: 0.675
LOU-NH91; first compound 2.53 µM
  relative viability: 0.715
NCI-H2087; first compound 0.08 µM
  relative viability: 1.21
NCI-H2087; first compound 0.253 µM
  relative viability: 0.892
NCI-H2087; first compound 0.8 µM
  relative viability: 1.02
NCI-H2087; first compound 2.53 µM
  relative viability: 1.06
NCI-H1734; first compound 0.08 µM
  relative viability: 0.766
NCI-H1734; first compound 0.253 µM
  relative viability: 0.673
NCI-H1734; first compound 0.8 µM
  relative viability: 0.656
NCI-H1734; first compound 2.53 µM
  relative viability: 0.633
EKVX; first compound 0.08 µM
  relative viability: 1.04
EKVX; first compound 0.253 µM
  relative viability: 0.739
EKVX; first compound 0.8 µM
  relative viability: 0.839
EKVX; first compound 2.53 µM
  relative viability: 0.766
A-427; first compound 0.08 µM
  relative viability: 1.1
A-427; first compound 0.253 µM
  relative viability: 1.05
A-427; first compound 0.8 µM
  relative viability: 1.07
A-427; first compound 2.53 µM
  relative viability: 1.06
HCC-366; first compound 0.08 µM
  relative viability: 0.369
HCC-366; first compound 0.253 µM
  relative viability: 0.364
HCC-366; first compound 0.8 µM
  relative viability: 0.33
HCC-366; first compound 2.53 µM
  relative viability: 0.32
NCI-H838; first compound 0.08 µM
  relative viability: 1.06
NCI-H838; first compound 0.253 µM
  relative viability: 0.951
NCI-H838; first compound 0.8 µM
  relative viability: 1.18
NCI-H838; first compound 2.53 µM
  relative viability: 1.41
NCI-H3122; first compound 0.08 µM
  relative viability: 0.858
NCI-H3122; first compound 0.253 µM
  relative viability: 0.771
NCI-H3122; first compound 0.8 µM
  relative viability: 0.725
NCI-H3122; first compound 2.53 µM
  relative viability: 0.762
NCI-H661; first compound 0.08 µM
  relative viability: 0.419
NCI-H661; first compound 0.253 µM
  relative viability: 0.645
NCI-H661; first compound 0.8 µM
  relative viability: 0.76
NCI-H661; first compound 2.53 µM
  relative viability: 0.654
EPLC-272H; first compound 0.08 µM
  relative viability: 0.911
EPLC-272H; first compound 0.253 µM
  relative viability: 1.01
EPLC-272H; first compound 0.8 µM
  relative viability: 0.728
EPLC-272H; first compound 2.53 µM
  relative viability: 0.899
NCI-H650; first compound 0.08 µM
  relative viability: 1.07
NCI-H650; first compound 0.253 µM
  relative viability: 1.06
NCI-H650; first compound 0.8 µM
  relative viability: 1.17
NCI-H650; first compound 2.53 µM
  relative viability: 1.11
HCC-78; first compound 0.08 µM
  relative viability: 0.401
HCC-78; first compound 0.253 µM
  relative viability: 0.285
HCC-78; first compound 0.8 µM
  relative viability: 0.308
HCC-78; first compound 2.53 µM
  relative viability: 0.333
NCI-H596; first compound 0.08 µM
  relative viability: 0.532
NCI-H596; first compound 0.253 µM
  relative viability: 0.375
NCI-H596; first compound 0.8 µM
  relative viability: 0.517
NCI-H596; first compound 2.53 µM
  relative viability: 0.469
HOP-62; first compound 0.08 µM
  relative viability: 1
HOP-62; first compound 0.253 µM
  relative viability: 0.902
HOP-62; first compound 0.8 µM
  relative viability: 0.958
HOP-62; first compound 2.53 µM
  relative viability: 1.14

— the supplement of paper PMC10307832
